Test results published in US20100204210A1, “METHOD FOR TREATING PULMONARY DISEASES USING RHO KINASE INHIBITOR COMPOUNDS” (priority 2008, published 2010).
Like-named read-outs stand apart in the source and are kept apart here.

Key:
rat tracheal rings [1] = test: Relaxation of carbachol-precontracted rat tracheal rings with reduced responsiveness to beta adrenergic receptor agonist; conditions: for response of carbachol-precontracted trachea to beta adrenergic receptor agonist: 300 nM carbachol, 1 μM isoproterenol, 1 μM formoterol or 30 μM albuterol, FIG. 1A-C; for relaxation by second addition of beta agonist after the response to 3 μM formoterol has faded: second dose 3 μM formoterol or 100 μM albuterol
Protocol: Trachea were excised from male Sprague-Dawley rats, cleaned of connective tissue and cut into cylindrical segments of 2-3 mm length. Two stainless steel wires were guided through the lumen of the tracheal ring. One wire was fixed in the tissue bath and the other was connected to a force transducer via surgical silk. Preparations were mounted in 5 ml water-jacketed organ baths (Radnoti Glass Technology) filled with Krebs buffer (95 mM NaCl, 5 mM KCl, 2.6 mM CaCl2, 1.2 mM MgSO4, 24.9 mM NaHCO3, 1.2 mM KH2PO4, 10 mM glucose) maintained at 37° C. and gassed with 95% O2 and 5% CO2. Indomethacin (1 μM), a cyclooxygenase inhibitor, was added to the Krebs buffer and was present throughout the experiments. Contractile tensions were measured using an isometric force transducer (Grass Instruments) and signals were analyzed using specialized software (Chart v5.5, ADInstruments). The preparations were allowed to equilibrate at a resting tension of 0.3 to 0.5 gm prior to two challenges with 60 mM KCl to assess tissue viability. After washing, tissues were treated with 300 nM carbachol for 10 to 15 minutes to induce a contractile response. Tissues were then treated with isoproterenol, formoterol, or albuterol to induce a relaxant response. […] After 10 minutes of formoterol treatment, these tissues were treated with a second dose of formoterol or with albuterol. After an additional 10 minutes, tissues were treated with a Rho kinase inhibitor. Basal tension was subtracted from all values and data were reported as a percentage of the maximal carbachol-induced contraction. Four parameters were analyzed for quantitation of efficacies: i) the maximal relaxation induced by initial formoterol treatment, ii) the fade of the response to the initial formoterol treatment, iii) the maximal relaxation induced by the second addition of a beta adrenergic receptor agonist, and iv) the maximal relaxation induced by Rho kinase inhibitor.

[2] = Pulmonary function test (FEV1 after methacholine provocation) in human patients treated with formoterol; format: in vivo; conditions: formoterol group compared to the placebo group, after 2 weeks
From the text: Patients with asthma or COPD are randomized to albuterol or Rho kinase inhibitor compound test groups. After 2-weeks of run-in period, subjects are given a methacholine provocation test (MPT) to induce bronchoconstriction followed by treatment with increasing doses of albuterol or with increasing doses of Rho kinase inhibitor compound to induce bronchorelaxation to establish the subject's baseline response to albuterol or Rho kinase inhibitor compound. Subjects from both test groups are then randomized to inhaled formoterol twice daily or placebo for 2 weeks. At the end of the trial period, the albuterol test group subjects are again administered a methacholine provocation test to induce bronchoconstriction followed by treatment with increasing doses of albuterol. Similarly, the Rho kinase inhibitor compound test group subjects are again administered a methacholine provocation test to induce bronchoconstriction followed by treatment with increasing doses of Rho kinase inhibitor compound to induce bronchorelaxation. The change in FEV1 after albuterol inhalation or administration of Rho kinase inhibitor compound is measured.

rat tracheal rings [3] = test: Relaxation of carbachol-precontracted rat tracheal rings pretreated with vehicle or pro-inflammatory cytokines IL-1β and TNF-α; conditions: 300 nM carbachol, read-out: IC50 for relaxant response
Protocol: Male Sprague-Dawley rats weighing 301-325 gm were sacrificed by asphyxiation in a CO2 chamber. Trachea were excised, cleaned of connective tissue and cut into cylindrical segments of 2-3 mm length. Tissues were treated for 18 hours at 37° C. in F12 media with penicillin-streptomycin and 0.1% BSA alone or with 10 ng/ml IL-1β and 100 ng/ml TNF-α. IL-1β and TNF-α are pro-inflammatory cytokines. Tissues were then washed free of cytokines with Krebs buffer. Contractile tensions were measured using an isometric force transducer (Grass Instruments) as described for Example 1 and signals were analyzed using specialized software (Chart v5.5, ADInstruments). Tissues were treated with 300 nM carbachol for 10 to 15 minutes to induce a contractile response. Beta adrenergic receptor agonist compounds, isoproterenol or albuterol, were added cumulatively to the bath every 2 to 3 minutes and reductions in tension were recorded. Alternatively, Rho kinase inhibitor compound was added cumulatively to the bath every 30 minutes and reductions in tension were recorded. Basal tension was subtracted from all values and data were reported as a percentage of the maximal carbachol-induced contraction. Data were fit to the Hill equation using GraphPad Prism v5 software.

[4] = cytokine-pretreated tissue (10 ng/ml IL-1β and 100 ng/ml TNF-α, 18 hours)

| SMILES | response of carbachol-precontracted trachea to beta adrenergic receptor agonist (rat tracheal rings [1]) | relaxation by second addition of beta agonist after the response to 3 μM formoterol has faded (rat tracheal rings [1]) | bronchodilator response as measured by FEV1 [2] | IC50 (rat tracheal rings [3]; [4]) | IC50 (rat tracheal rings [3]; vehicle-pretreated tissue) | maximal relaxation induced by initial formoterol treatment (rat tracheal rings [1]; 3 μM formoterol, FIGS. 4-7) |
| --- | --- | --- | --- | --- | --- | --- |
| CC(C)(C)NCC(O)c1ccc(O)c(CO)c1 (centres unmarked) [albuterol] | initial rapid and partial relaxation of the tissue followed by a slower fade of the response to a more contractile state | ineffective in relaxing the tracheal preparation | decrease in the bronchodilator response | 411 nM | 239 nM | – |
| COc1ccc(CC(C)NCC(O)c2ccc(O)c(NC=O)c2)cc1 (centres unmarked) [formoterol] | initial rapid and partial relaxation of the tissue followed by a slower fade of the response to a more contractile state | ineffective in relaxing the tracheal preparation | – | – | – | approximately 30 % of the initial carbachol response |
| CC(C)NCC(O)c1ccc(O)c(O)c1 (centres unmarked) [isoproterenol] | initial rapid and partial relaxation of the tissue followed by a slower fade of the response to a more contractile state | – | – | 71 nM | 33 nM | – |
